This passage reports Ki and Treatment-related toxicity results from patent US12514938B2, “Fibroblast activation protein targeting peptides” (PERSPECTIVE THERAPEUTICS, INC., priority 2023, dated 2026).

*1 amine or outer side, *2 acyl side, *3 side chain or, on linkers, in order; H or OH if unused. Where a SMILES comes first, the peptide text is derived from it. Bridges are numbered along the chain shown (N, C = ends). The star is where a group is joined. X1 = NC(=O)CN1CCN(CC(=O)O)CCN(CC(=O)*)CCN(CC(=O)O)CC1; NOTA = O=C(O)CN1CCN(CC(=O)O)CCN(CC(=O)*)CC1; mXylylene = c1cc(C[*:1])cc(C[*:2])c1; oXylylene = c1ccc(C[*:2])c(C[*:1])c1; pXylylene = c1cc(C[*:2])ccc1C[*:1]; PEG4 = NCCOCCOCCOCCOCCC(=O)O; 12Ado = NCCCCCCCCCCCC(=O)O; PEG2 = NCCOCCOCCC(=O)O; Ahx = NCCCCCC(=O)O

The first data set has as its target T1, Human Fibroblast Activation Protein (FAP) (Homo sapiens, UniProt Q12884).
T1 sequence (Q12884 1-760): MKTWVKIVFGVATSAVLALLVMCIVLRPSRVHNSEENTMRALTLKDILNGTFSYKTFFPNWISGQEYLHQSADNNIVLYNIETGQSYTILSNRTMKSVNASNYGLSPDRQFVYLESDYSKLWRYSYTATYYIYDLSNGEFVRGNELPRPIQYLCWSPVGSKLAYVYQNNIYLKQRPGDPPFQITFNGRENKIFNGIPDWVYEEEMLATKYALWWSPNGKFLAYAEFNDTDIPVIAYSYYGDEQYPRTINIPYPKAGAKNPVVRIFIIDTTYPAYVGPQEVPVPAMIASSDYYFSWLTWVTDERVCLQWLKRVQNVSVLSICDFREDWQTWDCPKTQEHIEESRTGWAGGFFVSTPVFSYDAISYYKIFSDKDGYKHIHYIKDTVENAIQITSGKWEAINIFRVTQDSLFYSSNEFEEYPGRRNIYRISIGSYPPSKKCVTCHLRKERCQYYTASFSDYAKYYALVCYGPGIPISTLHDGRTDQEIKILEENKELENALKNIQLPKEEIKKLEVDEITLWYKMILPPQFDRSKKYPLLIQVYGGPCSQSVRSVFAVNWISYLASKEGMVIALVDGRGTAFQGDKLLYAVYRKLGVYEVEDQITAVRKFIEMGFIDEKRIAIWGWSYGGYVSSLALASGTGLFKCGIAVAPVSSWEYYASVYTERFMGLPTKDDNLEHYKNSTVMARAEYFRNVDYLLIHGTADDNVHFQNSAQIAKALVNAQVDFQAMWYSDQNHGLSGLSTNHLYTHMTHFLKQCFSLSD
As to the kind of experiment: Enzyme inhibition assay against human FAP (substrate Z-GP-AMC), Example 1. The data set is classed as biochemical. As to conditions: human FAP 5 ng/well, 50 μM Z-GP-AMC; Ki from IC50 by Cheng-Prusoff. In a few lines:
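FAP (5 ng/well) preincubated 10 min at RT with peptide (10^−6 to 10^−12), then 50 μM Z-GP-AMC added for 1 h at RT, protected from light. Buffer 50 mM Tris-HCl, 1 M NaCl, 1 mg/mL BSA, pH 7.5; fluorescence at ex/em 360/460. IC50 from non-linear regression, converted to Ki via Cheng-Prusoff using known substrate Km.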
Consider `C[C@@H](O)[C@@H]1NC(=O)[C@@H](NC(=O)CCOCCOCCOCCOCCNC(=O)CN2CCN(CC(=O)O)CCN(CC(N)=O)CCN(CC(=O)O)CC2)CSCc2ccccc2CSC[C@@H](C(N)=O)NC(=O)[C@H](Cc2c[nH]c3ccccc23)NC(=O)[C@H](Cc2c[nH]c3ccccc23)NC(=O)[C@H](CCC(N)=O)NC(=O)[C@H](CCC(=O)O)NC(=O)[C@H](Cc2c[nH]c3ccccc23)NC(=O)[C@@H]2CCCN2C1=O` [VMT-FAP-2-69, PSC-PEG4-[C(oXdB)TPWEQWWC]-NH2] ({X1-PEG4}-CTPWEQWWC-NH2; linker 1-9 via oXylylene), for which the Ki was 0.01 nM.
Turning to `C[C@@H](O)[C@@H]1NC(=O)[C@@H](NC(=O)CCCCCNC(=O)CN2CCN(CC(=O)O)CCN(CC(N)=O)CCN(CC(=O)O)CC2)CSCc2ccccc2CSC[C@@H](C(N)=O)NC(=O)[C@H](Cc2c[nH]c3ccccc23)NC(=O)[C@H](Cc2c[nH]c3ccccc23)NC(=O)[C@H](CCC(N)=O)NC(=O)[C@H](CCC(=O)O)NC(=O)[C@H](Cc2c[nH]c3ccccc23)NC(=O)[C@@H]2CCCN2C1=O` [VMT-FAP-2-70, PSC-6AHA-[C(oXdB)TPWEQWWC]-NH2] ({X1-Ahx}-CTPWEQWWC-NH2; linker 1-9 via oXylylene), the Ki turned out to be 0.64 nM.
Turning to `C[C@@H](O)[C@@H]1NC(=O)[C@@H](NC(=O)CCCCCCCCCCCNC(=O)CN2CCN(CC(=O)O)CCN(CC(N)=O)CCN(CC(=O)O)CC2)CSCc2ccccc2CSC[C@@H](C(N)=O)NC(=O)[C@H](Cc2c[nH]c3ccccc23)NC(=O)[C@H](Cc2c[nH]c3ccccc23)NC(=O)[C@H](CCC(N)=O)NC(=O)[C@H](CCC(=O)O)NC(=O)[C@H](Cc2c[nH]c3ccccc23)NC(=O)[C@@H]2CCCN2C1=O` [VMT-FAP-2-74, PSC-12-Ado-[C(oXdB)TPWEQWWC]-NH2] ({X1-12Ado}-CTPWEQWWC-NH2; linker 1-9 via oXylylene), the inhibitory constant (Ki) amounted to 6.66 nM.
For the molecule `C[C@@H](O)[C@@H]1NC(=O)[C@@H](NC(=O)CCCCCNC(=O)CN2CCN(CC(=O)O)CCN(CC(N)=O)CCN(CC(=O)O)CC2)CSCc2ccccc2CSC[C@@H](C(=O)O)NC(=O)[C@H](Cc2c[nH]c3ccccc23)NC(=O)[C@H](Cc2c[nH]c3ccccc23)NC(=O)[C@H](CCC(N)=O)NC(=O)[C@H](CCC(=O)O)NC(=O)[C@H](Cc2c[nH]c3ccccc23)NC(=O)[C@@H]2CCCN2C1=O` [VMT-FAP-2-75, PSC-6AHA-[C(oXdB)TPWEQWWC]-COOH] ({X1-Ahx}-CTPWEQWWC-OH; linker 1-9 via oXylylene), the Ki turned out to be 1.26 nM.
Still for that read-out and setting: in the case of `C[C@@H](O)[C@@H]1NC(=O)[C@@H](NC(=O)CCOCCOCCNC(=O)CN2CCN(CC(=O)O)CCN(CC(N)=O)CCN(CC(=O)O)CC2)CSCc2ccccc2CSC[C@@H](C(=O)O)NC(=O)[C@H](Cc2c[nH]c3ccccc23)NC(=O)[C@H](Cc2c[nH]c3ccccc23)NC(=O)[C@H](CCC(N)=O)NC(=O)[C@H](CCC(=O)O)NC(=O)[C@H](Cc2c[nH]c3ccccc23)NC(=O)[C@@H]2CCCN2C1=O` [VMT-FAP-2-76, PSC-PEG2-[C(oXdB)TPWEQWWC]-COOH] ({X1-PEG2}-CTPWEQWWC-OH; linker 1-9 via oXylylene) it was 31.4 nM.
On to `C[C@@H](O)[C@@H]1NC(=O)[C@@H](NC(=O)CCOCCOCCNC(=O)CN2CCN(CC(=O)O)CCN(CC(=O)O)CC2)CSCc2ccccc2CSC[C@@H](C(N)=O)NC(=O)[C@H](Cc2c[nH]c3ccccc23)NC(=O)[C@H](Cc2c[nH]c3ccccc23)NC(=O)[C@H](CCC(N)=O)NC(=O)[C@H](CCC(=O)O)NC(=O)[C@H](Cc2c[nH]c3ccccc23)NC(=O)[C@@H]2CCCN2C1=O` [VMT-FAP-2-78, NOTA-PEG2-[C(oXdB)TPWEQWWC]-NH2] ({NOTA-PEG2}-CTPWEQWWC-NH2; linker 1-9 via oXylylene), for which the inhibition constant (Ki) came to 0.01 nM.
For the molecule `C[C@@H](O)[C@@H]1NC(=O)[C@@H](NC(=O)CCOCCOCCNC(=O)CN2CCN(CC(=O)O)CCN(CC(N)=O)CCN(CC(=O)O)CC2)CSCc2ccc(cc2)CSC[C@@H](C(N)=O)NC(=O)[C@H](Cc2c[nH]c3ccccc23)NC(=O)[C@H](Cc2c[nH]c3ccccc23)NC(=O)[C@H](CCC(N)=O)NC(=O)[C@H](CCC(=O)O)NC(=O)[C@H](Cc2c[nH]c3ccccc23)NC(=O)[C@@H]2CCCN2C1=O` [VMT-FAP-2-82, PSC-PEG2-[C(pXdB)TPWEQWWC]-NH2] ({X1-PEG2}-CTPWEQWWC-NH2; linker 1-9 via pXylylene), the Ki is 2.68 nM.
Consider `C[C@@H](O)[C@@H]1NC(=O)[C@@H](NC(=O)CCOCCOCCNC(=O)CN2CCN(CC(=O)O)CCN(CC(N)=O)CCN(CC(=O)O)CC2)CSCc2cccc(c2)CSC[C@@H](C(N)=O)NC(=O)[C@H](Cc2c[nH]c3ccccc23)NC(=O)[C@H](Cc2c[nH]c3ccccc23)NC(=O)[C@H](CCC(N)=O)NC(=O)[C@H](CCC(=O)O)NC(=O)[C@H](Cc2c[nH]c3ccccc23)NC(=O)[C@@H]2CCCN2C1=O` [VMT-FAP-2-83, PSC-PEG2-[C(mXdB)TPWEQWWC]-NH2] ({X1-PEG2}-CTPWEQWWC-NH2; linker 1-9 via mXylylene), for which the Ki was determined as 0.54 nM.
Take `C[C@@H](O)[C@@H]1NC(=O)[C@@H]2CCCN2C(=O)[C@H](Cc2c[nH]c3ccccc23)NC(=O)[C@H](CCC(=O)O)NC(=O)[C@H](CCC(N)=O)NC(=O)[C@H](Cc2c[nH]c3ccccc23)NC(=O)[C@H](Cc2c[nH]c3ccccc23)NC(=O)[C@@H](NC(=O)CCOCCOCCNC(=O)CN2CCN(CC(=O)O)CCN(CC(N)=O)CCN(CC(=O)O)CC2)CSCc2ccccc2CSC[C@@H](C(=O)N[C@@H](CO)C(N)=O)NC1=O` [VMT-FAP-2-84, PSC-PEG2-[C(oXdB)WWQEWPTC]S-NH2] ({X1-PEG2}-CWWQEWPTCS-NH2; linker 1-9 via oXylylene): the Ki is 115 nM.
Still for that read-out and setting: in the case of “NODA-PEG2-[C(oXdB)TPWEQWWC]-NH2 [VMT-FAP-2-77]” it was 4.59 nM.
On to “PSC-Bn-NCS-PEG1-[C(oXdB)TPWEQWWC]-NH2 [VMT-FAP-2-72]”, for which the Ki was 0.79 nM.
As for “PSC-Bn-NCS-PEG2-[C(oXdB)TPWEQWWC]-NH2 [VMT-FAP-2-73]”, the inhibitory constant (Ki) amounted to 3.61 nM.

The subject of a further data set is hFAP-HT1080 tumors. As to the kind of experiment: Radiotherapeutic efficacy in human fibrosarcoma xenograft model. The data set is classed as in vivo, athymic nude mice. To be noted: 4.5-5.4 MBq over three fractionated doses, weight recorded over 70 days. On the procedure:
In vivo efficacy was determined in a sarcoma model where hFAP is expressed on the membrane of cancer cell surface. HT1080 cells engineered to express hFAP. 8 days prior to treatment, athymic nude mice were inoculated with approximately 2 million cells. The mice were then randomized by tumor size and divided into two groups for control and treatment. The treated group was treated with 4.5-5.4 MBq [^212Pb]-Pb-VMT-FAP-2-59 over three fractionated doses approximately 2 weeks apart. Two mice were treated a fourth time, at day 48 and day 53 with an additional 1.9-2.1MBq. Tumor volume was measured via caliper, and weight recorded over 70 days. […] Efficacy of VMT-FAP-2-59 in athymic nude mice bearing HT1080-FAP tumors. Tumor volume and weight was monitored over 70 days. The treatment group was given 4.5-5.4MBq ^212Pb-VMT-FAP-2-59 over 3 fractionated doses. Two mice with tumor recurrence were given an additional 1.9-2.1 MBq, as indicated by dashed arrows.
A general note: In xenograft studies the graft and the host belong to different species.
`C[C@@H](O)[C@@H]1NC(=O)[C@@H](NC(=O)CCOCCOCCNC(=O)CN2CCN(CC(=O)O)CCN(CC(N)=O)CCN(CC(=O)O)CC2)CSCc2ccccc2CSC[C@@H](C(N)=O)NC(=O)[C@H](Cc2c[nH]c3ccccc23)NC(=O)[C@H](Cc2c[nH]c3ccccc23)NC(=O)[C@H](CCC(N)=O)NC(=O)[C@H](CCC(=O)O)NC(=O)[C@H](Cc2c[nH]c3ccccc23)NC(=O)[C@@H]2CCCN2C1=O` [[^212Pb]VMT-FAP-2-59, metal not drawn] ({X1-PEG2}-CTPWEQWWC-NH2; linker 1-9 via oXylylene): the Treatment-related toxicity result is “No treatment-related toxicity was observed”.

A word on the Ki: it is a measure of affinity in units of concentration, obtained from inhibition or displacement.
